Reference: BigSolDB 2.1

SMILES: Cc1nnc(C(C)C)n1[C@@H]1C[C@H]2CC[C@@H](C1)N2CC[C@H](NC(=O)C1CCC(F)(F)CC1)c1ccccc1
- solubility (mole fraction) (in DMF, 278.15 K): 3.43e-05
- solubility (mole fraction) (in DMF, 283.15 K): 5.31e-05
- solubility (mole fraction) (in DMF, 288.15 K): 8.04e-05
- solubility (mole fraction) (in DMF, 293.15 K): 0.000117
- solubility (mole fraction) (in DMF, 298.15 K): 0.000181
- solubility (mole fraction) (in DMF, 303.15 K): 0.000256
- solubility (mole fraction) (in DMF, 308.15 K): 0.000364
- solubility (mole fraction) (in DMF, 313.15 K): 0.000535
- solubility (mole fraction) (in DMF, 318.15 K): 0.000744
- solubility (mole fraction) (in DMF, 323.15 K): 0.00105
- solubility (mole fraction) (in DMSO, 293.15 K): 5.92e-05
- solubility (mole fraction) (in DMSO, 298.15 K): 8.77e-05
- solubility (mole fraction) (in DMSO, 303.15 K): 0.000133
- solubility (mole fraction) (in DMSO, 308.15 K): 0.000189
- solubility (mole fraction) (in DMSO, 313.15 K): 0.000273
- solubility (mole fraction) (in DMSO, 318.15 K): 0.00038
- solubility (mole fraction) (in DMSO, 323.15 K): 0.000539
- solubility (mole fraction) (in ethanol, 278.15 K): 0.000264
- solubility (mole fraction) (in ethanol, 283.15 K): 0.00038
- solubility (mole fraction) (in ethanol, 288.15 K): 0.0005
- solubility (mole fraction) (in ethanol, 293.15 K): 0.000715
- solubility (mole fraction) (in ethanol, 298.15 K): 0.00099
- solubility (mole fraction) (in ethanol, 303.15 K): 0.00142
- solubility (mole fraction) (in ethanol, 308.15 K): 0.00196
- solubility (mole fraction) (in ethanol, 313.15 K): 0.00273
- solubility (mole fraction) (in ethanol, 318.15 K): 0.0036
- solubility (mole fraction) (in ethanol, 323.15 K): 0.00458
- solubility (mole fraction) (in n-propanol, 278.15 K): 0.00022
- solubility (mole fraction) (in n-propanol, 283.15 K): 0.000327
- solubility (mole fraction) (in n-propanol, 288.15 K): 0.000454
- solubility (mole fraction) (in n-propanol, 293.15 K): 0.000645
- solubility (mole fraction) (in n-propanol, 298.15 K): 0.000911
- solubility (mole fraction) (in n-propanol, 303.15 K): 0.00126
- solubility (mole fraction) (in n-propanol, 308.15 K): 0.00167
- solubility (mole fraction) (in n-propanol, 313.15 K): 0.00222
- solubility (mole fraction) (in n-propanol, 318.15 K): 0.00296
- solubility (mole fraction) (in n-propanol, 323.15 K): 0.00395
- solubility (mole fraction) (in water, 278.15 K): 5.73e-06
- solubility (mole fraction) (in water, 283.15 K): 8.2e-06
- solubility (mole fraction) (in water, 288.15 K): 1.15e-05
- solubility (mole fraction) (in water, 293.15 K): 1.7e-05
- solubility (mole fraction) (in water, 298.15 K): 2.47e-05
- solubility (mole fraction) (in water, 303.15 K): 3.5e-05
- solubility (mole fraction) (in water, 308.15 K): 5e-05
- solubility (mole fraction) (in water, 313.15 K): 7.13e-05
- solubility (mole fraction) (in water, 318.15 K): 9.89e-05
- solubility (mole fraction) (in water, 323.15 K): 0.000137
